Results on one substance are retold here after US20250041272A1, “COMPOSITIONS AND METHODS FOR TREATING CANCER VIA PTP1B INHIBITION” (priority 2021, published 2025).

One data set concerns B16F10 tumors. As to the kind of experiment: Subcutaneous B16F10 melanoma tumor model. Type of data set: in vivo, mouse. The procedure: Tumor implantation, treatment and harvest. For animal studies, 1*10^5 B16F10 luciferase-tagged melanoma cells, 1*10^6 GEMM6 melanoma cells or 2*10^6 LCC cells were implanted subcutaneously into C57BL/6J mice (randomized, both males and females, 000664 The Jackson laboratory). When indicated, mice received intraperitoneal injections 7 days after implantation with 100 μl of 5 mg/kg cisplatin (Tocris), 100 μl of 10 mg/kg BVT948 (Tocris) or 100 μl of 30 mg/kg of vemurafenib. 5 mice were used per experimental group and tumors were harvested when they reached 1.5 cm in any direction.
(§1) Immunohistochemistry analysis. Immunohistochemistry assay was carried out in formalin-fixed, paraffin-embedded 4 μm sections using primary antibodies against F4:80 (AbD Serotec), CD11b (Abcam), CD4 (eBioscience) or CD8a (eBioscience) on a Discovery Ultra Automated IHC staining system (Ventana). Sections were then imaged using a ScanScope XT microscope (Aperio) and quantified using Aperio software.

The subject of another data set is GEMM6 tumors. The experiment in a line: GEMM6 melanoma tumor model. Type of data set: in vivo. As for the experimental part: Tumor implantation, treatment and harvest. For animal studies, 1*10^5 B16F10 luciferase-tagged melanoma cells, 1*10^6 GEMM6 melanoma cells or 2*10^6 LCC cells were implanted subcutaneously into C57BL/6J mice (randomized, both males and females, 000664 The Jackson laboratory). When indicated, mice received intraperitoneal injections 7 days after implantation with 100 μl of 5 mg/kg cisplatin (Tocris), 100 μl of 10 mg/kg BVT948 (Tocris) or 100 μl of 30 mg/kg of vemurafenib. […]
as §1

The mark [1] stands for this setting: BVT948 monotherapy, treatment from palpable tumors (50 mm^3), 8 mice per arm.

Turning to BVT948, the “B16F10 tumor growth, monotherapy vs vehicle” value with B16F10 tumors (BVT948 10 mg/kg or Cisplatin 5 mg/kg intraperitoneal, treatment from 50 mm^3) is “did not significantly reduce”. The “decrease in B16F10 tumor growth, combination” value in the data set with B16F10 tumors (BVT948 in combination with Cisplatin) is reported as “roughly 50%”. Besides, the “reduction in tumor viability (H&E staining)” value in the data set with B16F10 tumors (BVT948 monotherapy, B16F10 tumors) amounted to 20%. In addition, the intra-tumoral immune infiltrate result with B16F10 tumors (BVT948 monotherapy, end-stage B16F10) is “some increases in macrophage and T cells”. In addition, the “decrease in GEMM6 tumor growth, combination” value with GEMM6 tumors (BVT948 in combination with Vemurafenib) is reported as “roughly 50%”. Besides, the “tumor viability (H&E staining)” value in the data set on GEMM6 tumors (BVT948 monotherapy, GEMM6 tumors) is “not significantly changed”. For the same substance, in the data set with GEMM6 tumors (setting [1]), the “mice completely regressing and immune to rechallenge 1 month later” value is on record as 3/8; the “mice showing reductions in tumor growth” value is listed as 6/8; the “mice that died (most likely drug toxicity or autoimmune response)” value was 2/8. Moreover, the “GEMM6 tumor growth, monotherapy vs vehicle” value with GEMM6 tumors (larger tumors (200 mm^3), BVT948 10 mg/kg or Vemurafenib 30 mg/kg intraperitoneal) is “did not significantly reduce”.
